According to US20150209379A1, “TREATMENT OF PROSTATE CANCER AND HEMATOLOGIC NEOPLASMS” (THOMAS JEFFERSON UNIVERSITY, priority 2012, published 2015):

What was measured:
[1] = system: CWR22Rv1 prostate cancer cells; assay: Cell viability, MTS assay, CWR22Rv1 prostate cancer cells; type: cell-based, human; details: CWR22Rv1, 72 h, 3.1, 6.3, 12.5, 25 and 50 μM, vs control compound C5
Description: (§1) Exponentially growing CWR22Rvl prostate cancer cells were treated with Compound 1, Compound 2 or the control compound C5 for 72 h at 3.1, 6.3. 12.5, 25 and 50 μM concentrations. The cell viability was assessed by MTS (3-(4,5-dimethylthiazolyl-2)-2,5-diphenyl-tetrazolium bromide) metabolic activity assay (CellTiter 96® AQueous Assay kit).
as §1, with “CWR22Rv1” for “CWR22Rvl”, “cancer cells, K562 leukemia cells and imatinib-sensitive KCL22S and imatinib-resistant KCL22R chronic myeloid leukemia” for “cancer”, “NBPP” for “Compound 1, Compound 2”
as §1, with “N6BA” for “Compound 1, Compound 2”

[2] = system: K562 human chronic myeloid leukemia cells; assay: Cell viability, MTS assay, K562 chronic myeloid leukemia cells; type: cell-based; details: K562, 72 h, 3.1, 6.3, 12.5, 25 and 50 μM, vs control compound C5
Description: as §1, with “K562 human chronic myeloid leukemia” for “CWR22Rvl prostate cancer”
as §1, with “CWR22Rv1” for “CWR22Rvl”, “cancer cells, K562 leukemia cells and imatinib-sensitive KCL22S and imatinib-resistant KCL22R chronic myeloid leukemia” for “cancer”, “NBPP” for “Compound 1, Compound 2”

[3] = system: Stat5a/b; assay: Constitutive Stat5a/b phosphorylation in imatinib-sensitive KCL22S cells (Western blot); type: cell-based, human
Description: Exponentially growing KCL22S and KCL22R cells were treated with Compound 1 or Compound 2 at various concentrations for 3 h and 16 h (Compound 1) or 3 h, 6 h or 16 h (Compound 2) after which the cells were harvested. Cell pellets were solubilized in lysis buffer [10 mM Tris-HCl (pH 7.6), 5 mM EDTA, 50 mM sodium chloride, 30 mM sodium pyrophosphate, 50 mM sodium fluoride, 1 mM sodium orthovanadate, 1% Triton X-100, 1 mM phenylmethylsulfonyl fluoride, 5 μg/ml aprotinin, 1 μg/ml pepstatin A, and 2 μg/ml leupeptin], rotated end-over-end at 4° C. for 60 min, and insoluble material was pelleted at 12,000×g for 30 min at 4° C. The protein concentrations of clarified cell lysates were determined by simplified Bradford method (Bio-Rad Laboratories, Hercules, Calif.). Western blotting of the lysates was carried out using, as primary antibodies, the following antibodies at the following concentrations: anti-phosphotyrosine-Stat5a/b (Y694/Y699) mAb (1 μg/ml, Advantex BioReagents, Conroe, Tex.), anti-Stat5ab mAb (1:250; BD Biosciences, San Jose, Calif.) or anti-actin pAb (Sigma). Anti-actin was included as a control.
Exponentially growing K562 cells were treated with NBPP for 3 h or 6 h after which the cells were harvested. Exponentially growing K562 cells or imatinib-resistant K562 cells were treated with NBPP for 6 h or 16 h after which the cells were harvested. Cell pellets were solubilized in lysis buffer [10 mM Tris-HCl (pH 7.6), 5 mM EDTA, 50 mM sodium chloride, 30 mM sodium pyrophosphate, 50 mM sodium fluoride, 1 mM sodium orthovanadate, 1% Triton X-100, 1 mM phenylmethylsulfonyl fluoride, 5 μg/ml aprotinin, 1 μg/ml pepstatin A, and 2 μg/ml leupeptin], rotated end-over-end at 4° C. for 60 min, and insoluble material was pelleted at 12,000×g for 30 min at 4° C. The protein concentrations of clarified cell lysates were determined by simplified Bradford method (Bio-Rad Laboratories, Hercules, Calif.). […]

[4] = KCL22S, various concentrations, 3 h and 16 h (Compound 1) or 3 h, 6 h or 16 h (Compound 2)

Row | Structure (SMILES) | number of viable cells [1] | number of viable cells [2] | effect on phosphorylation of Stat5 [3, 4] | effect on phosphorylation of Stat5 ([3]; KCL22S imatinib-sensitive, 6 h or 16 h)
1 | OC[C@H]1O[C@@H](n2cnc3c(NCc4ccccc4)ncnc32)[C@H](O)[C@@H]1O [Compound N6BA, N^6-benzyladenosine] | decreased the number of viable prostate cancer cells | – | – | –
2 | OC[C@H]1O[C@@H](n2cnc3c(NNc4ccccc4)ncnc32)[C@H](O)[C@@H]1O [Compound 2, (2R,3S,4R,5R)-2-(hydroxymethyl)-5-(6-(2-phenylhydrazinyl)-9H-purin-9-yl)tetrahydrofuran-3,4-diol] | decreased the number of viable prostate cancer cells compared to the control compound | decreased the number of viable leukemic cells compared to the control compound | block phosphorylation of Stat5 | –
3 | OC[C@H]1O[C@@H](n2cnc3c(N4CCc5ccccc5C4)ncnc32)[C@H](O)[C@@H]1O [Compound 1, (2R,3R,4S,5R)-2-(6-(3,4-Dihydroisoquinolin-2(1H)-yl)-9H-purin-9-yl)-5-(hydroxymethyl)tetrahydrofuran-3,4-diol] | decreased the number of viable prostate cancer cells compared to the control compound | decreased the number of viable leukemic cells compared to the control compound | block phosphorylation of Stat5 | –
4 | OC[C@H]1O[C@@H](n2ccc3c(NCc4ccccc4)ncnc32)[C@H](O)[C@@H]1O [NBPP, N-(phenylmethyl)-7-β-D-ribofuranosyl-7H-pyrrolo[2,3-d]pyrimidin-4-amine] | decreased the number of viable prostate cancer cells | decreased the number of viable K562 cells | – | inhibits phosphorylation of Stat5
